The test system of one data set is sciatic nerve. Description: Nerve-regeneration promoting activity (crushed sciatic nerve). It is filed as in vivo. The note with it: 10 mg/kg intra-abdominally, 1 hour after crushing then twice per day for 5 days, SD rats, measured six days after operation. As to the method: The test was carried out according to the description of Experimental Neurology, Vol. 140, Page 198 (1996). SD rats (male, 6 weeks age, body weight 160-200 g) were anesthetized with Pentobarbital. The left sciatic nerve was exposed from the upper femoral muscular texture and peeled off from the surrounding texture, while taking care so as to give no injury to the muscular fiber. […] The crushed zone was marked with a thread at the end of neurilemma, and the operated portion was sutured. One hour after the crushing, a test compound dissolved in physiological salt solution was administered intra-abdominally at a dosage of 10 mg/kg. Thereafter, the same administration as above was repeated twice per day far 5 days. Six days after the operation, the operated portion was again opened under an anesthesia using Pentobarbital to expose the sciatic nerve, and a forceps was made to contact to the nerve from a position about 25 mm distant from the crushed part. The forceps was slowly moved toward the crushed part until a reflex reaction appeared. […] To the control group, only a saline was given. The sciatic nerve regeneration rate of the test compound was calculated according to the following equation: (Regeneration distance in administration group)÷(Regeneration distance in control group)×100(%)

Another data set has as its system ddY male mice. Put plainly: Anti-hypoxic activity. The format is in vivo. Conditions: 100 mg/kg orally, 30 minutes after administration, gas 4% oxygen / 96% nitrogen at 5 L/minute; for response vs control in vivo at 100 mg/kg: Mus musculus, po, 0.5 h, read-out: Anti-hypoxic activity: (survival time of mouse in administered group)÷(survival time of mouse in control group)×100. As to the method: A test compound (100 mg/kg) dissolved in distilled water is orally administered to ddY male mice of 5-6 weeks age (6-10 heads per group). Thirty minutes after the administration, each mouse was introduced into a glass vessel, and a gas mixture consisting of 4% of oxygen and 96% of nitrogen was passed through the glass vessel at a rate of 5 L/minute. The period of the time from the beginning of sending the gas to the death of the animal was measured.
To the control group, only distilled water was orally given. Anti-hypoxic activity of test compound was calculated according to the following equation:
(Survival time of mouse in administered group)÷(Survival time of mouse in control group)×100(%)

For another data set, the system named is NGF. The note with it: WO96/12717; cited from earlier work.
For data set [1], the system named is nerve cell death caused by Aβ. Conditions: Society for Neuroscience, Abstracts, Vol. 24, No. 1, Page 228 (1998); cited from earlier work.
Data set [2] relates to cultured nerve cell death induced by Aβ. Description: Activity of inhibiting the Aβ-induced nerve cell death (MTT assay). The format is cell-based, Wistar rat. Conditions: 0.1 μM; Aβ (25-35) 20 μmol/L; cultured rat embryo cerebral cortex nerve cells. From the text:
The effect of inhibiting the death of cultured nerve cell induced by Aβ was examined by a modification of the method described in Brain Research, Vol. 639, Page 240 (1994).
Cerebral cortex excised from the brain of an embryo of Wistar rat (embryonal age 17-19 days) was cut into small pieces and then treated with trypsin to dissociate the nerve cells. The cells were spread onto a 48-well tissue-culture plate at a rate of 1×10^5 cells per well, and cultured under a condition of 5% carbon dioxide, 37° C., in a Dulbecco modified Eagle medium to which B27 additives (product of GIBCO BRL) and 3.6 mg/mL glucose were added.
When the cultured had been continued for 12-13 days, a solution of potassium chloride was added so as to give a final concentration of 25 mmol/L, immediately after which a test agent was added. Twenty four hours after addition of the test agent, Aβ (25-35 peptide residues) dissolved in distilled water was added so as to give a final concentration of 20 μmol/L. Twenty four hours after addition of Aβ, the medium was changed to a medium prepared by adding test compound to Dulbecco modified Eagle medium to which B27 and 3.6 mg/mL glucose were added.
The inhibitory activity of test agent on the cultured nerve cell death was expressed by using the activity of inhibiting the decrease of MTT reducing ability as an index. That is, 48 hours after changing the medium, MTT assay developed by Mossmann [Journal of Immunological Methods, Vol. 65, Page 55 (1983)] was carried out, and the inhibition rate (%) of the agent on the decrease of MTT assay value induced by Aβ was calculated.
Inhibition rate=[(Aβ+MTT assay value of agent−added group)−(MTT assay value of Aβ−added group)]÷[MTT assay value of no addition group−MTT assay value of Aβ−added group]×100
(In general: Tetrazolium dyes change colour on reduction, which living cells bring about.)

The subject of data set [3] is cultured nerve cells death induced by HNE. Put plainly: Activity of inhibiting the HNE-induced nerve cell death (MTT assay). The format is cell-based, Wistar rat. Conditions: 0.1 μM; HNE 25 μmol/L; cultured rat embryo cerebral cortex nerve cells; 24 hours. From the text:
The protecting effect against the death of cultured nerve cells induced by HNE was examined by a modification of the method described in the Journal of Neuroscience, Vol. 17, Page 5089 (1997).
Cerebral cortex excised from the brain of an embryo of Wistar rat (embryonal age 17-19 days) was cut into small pieces and then treated with trypsin to dissociate the nerve cells. The cells were spread onto a 48-well tissue-culture plate at a rate of 5×10^5 cells per well, and cultured under a condition of 5% carbon dioxide, 37° C., in a Dulbecco modified Eagle medium to which 10% fetal calf serum and 3.6 mg/mL glucose were added.
In order to inhibit the proliferation of glia cells, cytosine arabinoside was added so as to give a final concentration of 10 μmol/L, from the day one after starting the culture. When the culture had been continued for 2 days, the medium was changed to a Dulbecco modified Eagle medium to which 10% fetal calf serum and 3.6 mg/mL glucose were added. When the culture had been continued for 7-8 days, a test agent was added, after which HNE was immediately added so as to give a final concentration of 25 μmol/L.
The inhibitory activity of an agent on the cultured nerve cell death was […] by using the inhibitory activity on the depression of MTT reducing ability as an index. That is, 24 hours after addition of a test agent, MTT assay [Journal of Immunological Methods, Vol. 65, Page 55 (1983)] developed by Mossmann was carried out, based on which inhibitory rate (%) of the agent on the decrease of MTT assay induced by HNE was calculated.
Inhibitory rate=[MTT assay value of (HNE+agent)−added group)−(MTT assay value of HNE−added group)]÷(MTT assay value of no addition group−MTT assay value of HNE−added group)]×100

For orientation: melting point means the temperature of the solid-liquid transition.

For `CCN(CC)CCOCCc1ccc2sc(-c3ccccc3)cc2c1.Cl` [Example 27, N,N-Diethyl-N-{2-[2-(2-phenylbenzo[b]-thiophen-5-yl)ethoxy]ethyl}-amine hydrochloride], the melting point is 131 to 138 °C. In addition, the “Regeneration rate of sciatic nerve: (regeneration distance in administration group)÷(regeneration distance in control group)×100” value (from here on “Regeneration rate of sciatic nerve”) in the data set on sciatic nerve was 126%.

Turning to `CN(C)CCOCCc1ccc2sccc2c1.Cl` [Example 16], the “Anti-hypoxic activity: (survival time of mouse in administered group)÷(survival time of mouse in control group)×100” value in the data set on ddY male mice is given as 158%. In the data set on sciatic nerve, the “Regeneration rate of sciatic nerve” value turned out to be 115%.

`CCN(CC)CCOC[C@H](O)c1ccc2sccc2c1.Cl` [Example T-588, (R)-1-(benzo[b]thiophen-5-yl)-2-[2-(N,N-diethylamino)ethoxy]ethanol hydrochloride]: the “Activity of reinforcing the function of NGF” value in the data set with NGF is given as “activity of reinforcing the function of NGF”. For the same compound, the “Protective action on the nerve cell death caused by Aβ” value in data set [1] is reported as “protective action”.

For `CN(CCO)CCOCCc1c(F)cc2ccsc2c1F.Cl` [Example 137, 2-[{2-[2-(5,7-Difluorobenzo[b]thiophen-6-yl)ethoxy]ethyl}(methyl)amino]-1-ethanol hydrochloride], the melting point was 95.5 to 97.5 °C. The “Inhibition rate on the decrease of MTT assay value induced by Aβ” value (shortened to “Inhibition rate on the decrease”) in data set [2] amounted to 37%.

In the case of `CN(CCO)CCOCCc1ccc2sccc2c1.O=C(O)C(=O)O` [Example 68, 2-{[2-(2-Benzo[b]thiophen-5-ylethoxy)ethyl]-(methyl)amino}-1-ethanol oxalate], in the data set with ddY male mice, the response vs control in vivo at 100 mg/kg worked out at 202%. Moreover, in data set [3], the “Inhibitory rate on the decrease of MTT assay induced by HNE” value (shortened to “Inhibitory rate on the decrease”) is 57%. Moreover, the “Inhibition rate on the decrease” value in data set [2] is listed as 28%.

For the compound “2-[[2-(3-Benzo[b]thiophen-5-ylpropyl)-ethyl](methyl)amino]-1-ethanol oxalate [Example 119]”, in data set [2], the “Inhibition rate on the decrease” value stood at 39%.

For `CCN(CC)CCOCCc1ccc2sccc2c1.O=C(O)C(=O)O` [Example 10], in the data set with ddY male mice, the “Anti-hypoxic activity: (survival time of mouse in administered group)÷(survival time of mouse in control group)×100” value was determined as 170%. In addition, the “Inhibitory rate on the decrease” value in data set [3] is 58%. Also, in the data set on sciatic nerve, the “Regeneration rate of sciatic nerve” value is recorded as 117%.

As to `CN(CCO)CCCOCCc1ccc2sccc2c1.O=C(O)C(=O)O` [Example 76, 2-{[3-(2-benzo[b]thiophen-5-ylethoxy)propyl]-(methyl)amino}-1-ethanol oxalate], the response vs control in vivo at 100 mg/kg with ddY male mice was determined as 194%. Also, the “Inhibitory rate on the decrease” value in data set [3] is listed as 49%.

These data come from US6797726B1, “N-alkoxyalkyl-N,N-dialkylamine derivatives or salts thereof, and remedies for nerve degeneration diseases containing the same” (Toyama Chemical Co., Ltd., priority 1999, dated 2004).
